Experiments:
Male Swiss Webster mice [1] = experiment: Hot-plate test (thermal stimulus), licking latency; format: in vivo
Method: The first experiment was the hot-plate test.
Male Swiss Webster mice weighing between 22 and 30 g were used.
The test was carried out according to O'Callaghan and Holtzman in J. Pharmacol. Exp. Ther. 197: 533-537, 1976.
According to this test, a stainless steel container is to be placed in a bain-marie at a temperature of 52.5° C.
The mouse was removed from the hot plate immediately upon the first sign of painful stimulus. The maximum latency time registered on the hot plate was 45 seconds.
The values of analgesia were determined at 15 minute-intervals.

Male Swiss Webster mice [2] = experiment: Abdominal constriction test (acetic acid IP); format: in vivo; settings: for Number of constrictions (0.3% acetic acid) / Number of constrictions (0.6% acetic acid): 3 mg/ml in drinking water
Method: The second experiment was the abdominal constriction test.
The abdominal constriction test was carried out according to Koster et al. in Fed. Proc. 18: 412, 1959.
According to this test, an IP injection of 0.6% acetic acid solution is to be made 5 minutes before starting the observation, which lasted 10 minutes.
In some experiments, the percentage of acetic acid was reduced by half (0.3%).

[3] = tested on: M1 muscarinic receptor sub-type; experiment: Hot plate: acetyl L-carnitine analgesia after anti-M1 antisense oligonucleotide ICV; format: in vivo, mice; settings: Acetyl L-carnitine 100 mg/kg BID SC 7 days
Description: The observation that the analgesia induced by the acetyl L-carnitine is mediated by the M1 muscarinic receptor sub-type is confirmed by the application of the anti-sense strategy.

Male Swiss Webster mice [4] = experiment: Rota-rod test (motor coordination); format: in vivo
Method: The rota rod test was carried out by means of an apparatus consisting of a platform and a 3 cm-diameter rotating rod (16-20 r.p.m.) with a non-slipping surface.
The integrity of the animals' motor coordination was determined according to the capacity of the mice to keep their balance on the rotating rod.
At various intervals after the treatment, the parameter considered was the number of falls of the animal within a 30 second-observation (Vaught et al., Neuropharmacol., 24: 211, 1985).

Male Swiss Webster mice [5] = experiment: Hole board test (spontaneous motility, exploratory activity); format: in vivo; settings: 14-day sub-chronic treatment SC 100 mg/kg BID; 5 minutes on board
Method: In the hole board test, the […] movements were recorded by two separate photocell systems, which recorded both the movements on the board (spontaneous motility) and how many times the mouse put its head into the holes on the surface (exploratory activity).
The mice were placed on the board one at a time and left free to explore both the surface and the holes for 5 minutes.

Male Swiss Webster mice [6] = experiment: Sleep induction test with pentobarbital; format: in vivo
Method: In the sleep induction test with pentobarbital, the duration of the loss of the […] reflex was measured in the mice treated with pentobarbital (60 mg/kg IP).

Male Swiss Webster mice [7] = experiment: Kainic acid-induced hyperalgesia (hot plate); format: in vivo
Method: According to this test, the hyperalgesia—determined in the mice through the hot plate test—is induced by a solution of kainic acid (20 mg/kg, IP).

Male Swiss Webster mice [8] = experiment: Hyperalgesia induced by NMDA (hot plate); format: in vivo
Method: This test was carried out in compliance with what described in the rats by Davies and Inturrisi in J. Pharmacol. Exp. Ther., 289: 1048-1053, 1999, but was applied to the mice by us.
According to this test, the hyperalgesia, assessed through the hot plate test, is to be induced by intrathecal administration of an NMDA solution (1.64 μg/mouse; administered around 15 minutes after the last administration of acetyl L-carnitine).
The reduction in the pain threshold, which reaches its peak 15 minutes after the injection of NMDA, disappears within 30 minutes from the administration.

[9] = solution 3 mg/ml in bottle for 7 and 14 days
[10] = pentobarbital 60 mg/kg IP, Acetyl L-carnitine 100 mg/kg BID SC 7 days, Piracetam 30 mg/kg IP

## CC(=O)O[C@H](CC(=O)[O-])C[N+](C)(C)C [Acetyl L-carnitine, acetyl L-carnitine]
Male Swiss Webster mice [1]; 3 mg/ml in drinking water, after 7 days treatment
  Hot plate Licking latency: 17.8 ± 2.3 s
Male Swiss Webster mice [1]; 3 mg/ml in drinking water, after 14 days treatment
  Hot plate Licking latency: 18.8 ± 2.5 s
Male Swiss Webster mice [1]; 3 mg/ml in drinking water, before treatment
  Hot plate Licking latency: 13.8 ± 0.8 s
Male Swiss Webster mice [1]; 30 mg/kg SC, acute and 30 mg/kg BID SC for 7 days
  analgesic effect in hot-plate test: had no analgesic effect
Male Swiss Webster mice [1]; 100 mg/kg BID SC for 7 days
  antinociceptive effect in hot-plate test: statistically significant antinociceptive effect
Male Swiss Webster mice [1]; 100 mg/kg BID administered for 14 days
  antinociceptive effect in hot-plate test: the test failed to be statistically significant
Male Swiss Webster mice [1]; 1-8 hours from one single administration of 100 mg/kg SC
  pain threshold in hot-plate test: did not affect the pain threshold
Male Swiss Webster mice [1]; 7-day sub-chronic treatment SC 30 mg/kg BID, 15 min after treatment
  Hot plate Licking latency: 16.3 ± 2.1 s
Male Swiss Webster mice [1]; 7-day sub-chronic treatment SC 30 mg/kg BID, 30 min after treatment
  Hot plate Licking latency: 17.3 ± 1.9 s
Male Swiss Webster mice [1]; 7-day sub-chronic treatment SC 30 mg/kg BID, 45 min after treatment
  Hot plate Licking latency: 15.2 ± 1.5 s
Male Swiss Webster mice [1]; 7-day sub-chronic treatment SC 30 mg/kg BID, before treatment
  Hot plate Licking latency: 15.8 ± 1.3 s
Male Swiss Webster mice [1]; 7-day sub-chronic treatment SC 100 mg/kg BID, 15 min after treatment
  Hot plate Licking latency: 22.1 ± 1.8^ sec
Male Swiss Webster mice [1]; 7-day sub-chronic treatment SC 100 mg/kg BID, 30 min after treatment
  Hot plate Licking latency: 22.5 ± 1.9^ sec
Male Swiss Webster mice [1]; 7-day sub-chronic treatment SC 100 mg/kg BID, 45 min after treatment
  Hot plate Licking latency: 22.2 ± 1.7^ sec
Male Swiss Webster mice [1]; 7-day sub-chronic treatment SC 100 mg/kg BID, before treatment
  Hot plate Licking latency: 21.8 ± 1.1^ sec
Male Swiss Webster mice [1]; 14-day sub-chronic treatment SC 100 mg/kg BID, 15 min after treatment
  Hot plate Licking latency: 22.1 ± 2.7 s
Male Swiss Webster mice [1]; 14-day sub-chronic treatment SC 100 mg/kg BID, 30 min after treatment
  Hot plate Licking latency: 22.5 ± 2.1 s
Male Swiss Webster mice [1]; 14-day sub-chronic treatment SC 100 mg/kg BID, 45 min after treatment
  Hot plate Licking latency: 23.4 ± 2.9 s
Male Swiss Webster mice [1]; 14-day sub-chronic treatment SC 100 mg/kg BID, before treatment
  Hot plate Licking latency: 22.4 ± 1.4 s
Male Swiss Webster mice [1]; 7 days after the end of the 14-day-treatment 100 mg/kg BID, 15 min after treatment
  Hot plate Licking latency: 21.1 ± 1.9^ sec
Male Swiss Webster mice [1]; 7 days after the end of the 14-day-treatment 100 mg/kg BID, 30 min after treatment
  Hot plate Licking latency: 18.5 ± 1.8 s
Male Swiss Webster mice [1]; 7 days after the end of the 14-day-treatment 100 mg/kg BID, 45 min after treatment
  Hot plate Licking latency: 19.0 ± 2.3 s
Male Swiss Webster mice [1]; 7 days after the end of the 14-day-treatment 100 mg/kg BID, before treatment
  Hot plate Licking latency: 19.2 ± 1.6^ sec
Male Swiss Webster mice [1]; 7 days after the last 14 day-series of injections, 100 mg/kg BID SC
  antinociceptive action in hot-plate test: persisted even 7 days after the last 14 day-series of injections
Male Swiss Webster mice [1]; Acute SC treatment 100 mg/kg, 15 min after treatment
  Hot plate Licking latency: 17.3 ± 1.7 s
Male Swiss Webster mice [1]; Acute SC treatment 100 mg/kg, 30 min after treatment
  Hot plate Licking latency: 16.8 ± 1.2 s
Male Swiss Webster mice [1]; Acute SC treatment 100 mg/kg, 45 min after treatment
  Hot plate Licking latency: 15.2 ± 1.7 s
Male Swiss Webster mice [1]; Acute SC treatment 100 mg/kg, before treatment
  Hot plate Licking latency: 13.9 ± 0.7 s
Male Swiss Webster mice [1]; SC acute treatment 30 mg/kg, 15 min after treatment
  Hot plate Licking latency: 15.8 ± 1.8 s
Male Swiss Webster mice [1]; SC acute treatment 30 mg/kg, 30 min after treatment
  Hot plate Licking latency: 16.5 ± 2.0 s
Male Swiss Webster mice [1]; SC acute treatment 30 mg/kg, 45 min after treatment
  Hot plate Licking latency: 15.0 ± 2.1 s
Male Swiss Webster mice [1]; SC acute treatment 30 mg/kg, before treatment
  Hot plate Licking latency: 14.2 ± 0.9 s
Male Swiss Webster mice [1]; acute SC administration 100 mg/kg
  protective effect in hot-plate test: did not exert any protective effect
Male Swiss Webster mice [1]; single SC treatment 100 mg/kg, 1 h after treatment
  Hot plate Licking latency: 15.8 ± 2.2 s
Male Swiss Webster mice [1]; single SC treatment 100 mg/kg, 2 h after treatment
  Hot plate Licking latency: 14.7 ± 1.5 s
Male Swiss Webster mice [1]; single SC treatment 100 mg/kg, 3 h after treatment
  Hot plate Licking latency: 15.6 ± 1.9 s
Male Swiss Webster mice [1]; single SC treatment 100 mg/kg, 4 h after treatment
  Hot plate Licking latency: 14.1 ± 2.0 s
Male Swiss Webster mice [1]; single SC treatment 100 mg/kg, 6 h after treatment
  Hot plate Licking latency: 15.2 ± 1.9 s
Male Swiss Webster mice [1]; single SC treatment 100 mg/kg, 8 h after treatment
  Hot plate Licking latency: 14.9 ± 1.6 s
Male Swiss Webster mice [1]; single SC treatment 100 mg/kg, before treatment
  Hot plate Licking latency: 14.5 ± 0.9 s
Male Swiss Webster mice [1]; [9]
  pain threshold in hot-plate test: no increase in the pain threshold was observed
Male Swiss Webster mice [2]; sub-chronic treatment 7 days
  Number of constrictions (0.3% acetic acid): 12.7 ± 3.5
  Number of constrictions (0.6% acetic acid): 31.5 ± 4.0
Male Swiss Webster mice [2]; sub-chronic treatment 14 days
  Number of constrictions (0.3% acetic acid): 11.9 ± 2.2
  Number of constrictions (0.6% acetic acid): 28.3 ± 5.1
Male Swiss Webster mice [2]; 0.6% acetic acid, 30 mg/kg IP (or SC), 18-day treatment (FIG. 3)
  antinociceptive effect, abdominal constriction test: had no effect
Male Swiss Webster mice [2]; 0.6% acetic acid, 100 mg/kg BID, SC or IP, 14 days of treatment (FIG. 1)
  antinociceptive effect, abdominal constriction test: exerted an antinociceptive effect
Male Swiss Webster mice [2]; 0.6% acetic acid, 100 mg/kg acute administration (SC or IP) or repeated for 7 days (FIG. 1)
  antinociceptive effect, abdominal constriction test: had no effect at all
Male Swiss Webster mice [2]; small concentration of acid, 30 mg/kg, 14 days (FIG. 4)
  antinociceptive effect, abdominal constriction test: the statistic significance was obtained after 14 days
Male Swiss Webster mice [2]; [9]
  pain threshold in abdominal constriction test (0.3 and 0.6%): no increase in the pain threshold was observed
[3]; pre-treat. AODN 3 nmol ICV, 24 hours after last injection, before treatment
  Hot plate Licking latency: 13.5 ± 0.8 s
[3]; pre-treat. AODN 3 nmol ICV, after treatment 15 min
  Hot plate Licking latency: 16.6 ± 1.9 s
[3]; pre-treat. AODN 3 nmol ICV, after treatment 30 min
  Hot plate Licking latency: 15.8 ± 1.8 s
[3]; pre-treat. AODN 3 nmol ICV, after treatment 45 min
  Hot plate Licking latency: 15.8 ± 1.5 s
[3]; pre-treat. dODN 3 nmol ICV, 24 hours after last injection, before treatment
  Hot plate Licking latency: 23.6 ± 1.1 s
[3]; pre-treat. dODN 3 nmol ICV, after treatment 15 min
  Hot plate Licking latency: 22.6 ± 2.3 s
[3]; pre-treat. dODN 3 nmol ICV, after treatment 30 min
  Hot plate Licking latency: 21.9 ± 1.5 s
[3]; pre-treat. dODN 3 nmol ICV, after treatment 45 min
  Hot plate Licking latency: 22.3 ± 1.7 s
Male Swiss Webster mice [4]; 100 mg/kg BID, SC or IP for 7 and 14 days
  Motor coordination (rota-rod): not different from motor coordination of the control mice
Male Swiss Webster mice [4]; 7-day sub-chronic treatment IP 100 mg/kg BID, 15 min after treatment
  ROTA-ROD No. of falls in 30 seconds: 2.2 ± 0.4
Male Swiss Webster mice [4]; 7-day sub-chronic treatment IP 100 mg/kg BID, 30 min after treatment
  ROTA-ROD No. of falls in 30 seconds: 1.5 ± 0.3
Male Swiss Webster mice [4]; 7-day sub-chronic treatment IP 100 mg/kg BID, 45 min after treatment
  ROTA-ROD No. of falls in 30 seconds: 1.1 ± 0.3
Male Swiss Webster mice [4]; 7-day sub-chronic treatment IP 100 mg/kg BID, before treatment
  ROTA-ROD No. of falls in 30 seconds: 3.6 ± 0.5
Male Swiss Webster mice [4]; 14-day sub-chronic treatment IP 100 mg/kg BID, 15 min after treatment
  ROTA-ROD No. of falls in 30 seconds: 2.9 ± 0.3
Male Swiss Webster mice [4]; 14-day sub-chronic treatment IP 100 mg/kg BID, 30 min after treatment
  ROTA-ROD No. of falls in 30 seconds: 1.7 ± 0.4
Male Swiss Webster mice [4]; 14-day sub-chronic treatment IP 100 mg/kg BID, 45 min after treatment
  ROTA-ROD No. of falls in 30 seconds: 1.0 ± 0.3
Male Swiss Webster mice [4]; 14-day sub-chronic treatment IP 100 mg/kg BID, before treatment
  ROTA-ROD No. of falls in 30 seconds: 3.9 ± 0.5
Male Swiss Webster mice [5]
  EXPLORATORY ACTIVITY No. of movements: 52.3 ± 6.5
  LOCOMOTOR ACTIVITY No. of explorations: 24.0 ± 5.1
Male Swiss Webster mice [6]; 100 mg/kg BID SC for 7 days, pentobarbital 60 mg/kg IP 24 hours after end of treatments
  effect on pentobarbital sleep duration and induction times: neither affected the duration of sleep nor the induction times
Male Swiss Webster mice [6]; [10]
  SLEEP Duration: 23.5 ± 3.4 min
  SLEEP Induction time: 3.3 ± 2.1 min
Male Swiss Webster mice [7]; 7-day repeated administration started 48 hours after kainic acid 20 mg/kg IP (FIG. 6)
  reversal of kainic acid-induced hyperalgesia: capable to revert the hyperalgesia
Male Swiss Webster mice [7]; single administration (FIG. 6bis)
  reversal of kainic acid-induced hyperalgesia: no anti-hyperalgesic effect
Male Swiss Webster mice [8]; 30 mg/kg BID, IP or SC for 7 days (FIG. 7)
  effect on reduction in pain threshold induced by NMDA: not found to be active
Male Swiss Webster mice [8]; 100 mg/kg BID, SC or IP for 7 days, NMDA 1.64 μg/mouse intrathecal (FIG. 7)
  effect on reduction in pain threshold induced by NMDA: anti-nociceptive effect

Reference: patent publication US20090062388A1, “Use of acetyl L-carnitine for the preparation of a medication for the preventive therapy for pain” (Sigma-Tau Industrie Farmaceutiche Riunite S.p.A., priority 2001, published 2009)
